# Measured values taken from US7713953B2, “2-methylene-(22E)-25-(1-methylene-hexyl)-26,27-cyclo-22-dehydro-19-nor-vitamin D analogs” (Wisconsin Alumni Research Foundation, priority 2008, dated 2010).
# Legend:
# HL-60 cells = test: HL-60 cell differentiation (nitro blue tetrazolium reduction); type: cell-based, human; conditions: for EC50: FIG. 2
# Description: The study drugs were dissolved in ethanol and the concentrations determined using UV spectrophotometry. Serial dilutions were prepared so that a range of drug concentrations could be tested without changing the final concentration of ethanol (≦0.2%) present in the cell cultures.
# Human promyelocytic leukemia (HL60) cells were grown in RPMI-1640 medium containing 10% fetal bovine serum. The cells were incubated at 37° C. in the presence of 5% CO2.
# HL60 cells were plated at 1.2×10^5 cells/ml. Eighteen hours after plating, cells in duplicate were treated with drug. Four days later, the cells were harvested and a nitro blue tetrazolium reduction assay was performed (Collins et al., 1979; J. Exp. Med. 149:969-974). The percentage of differentiated cells was determined by counting a total of 200 cells and recording the number that contained intracellular black-blue formazan deposits. Verification of differentiation to monocytic cells was determined by measuring phagocytic activity (data not shown).
# vitamin D-deficient rats [1] = test: Bone calcium mobilization (serum calcium); type: in vivo, rat; conditions: for bone calcium mobilization activity (serum calcium): rats on low calcium diet (0.02%), 4 consecutive daily ip doses
# Description: (§1) Male, weanling Sprague-Dawley rats were placed on Diet 11 (0.47% Ca) diet+AEK oil for one week followed by Diet 11 (0.02% Ca)+AEK oil for 3 weeks. The rats were then switched to a diet containing 0.47% Ca for one week followed by two weeks on a diet containing 0.02% Ca. Dose administration began during the last week on 0.02% calcium diet. Four consecutive ip doses were given approximately 24 hours apart. Twenty-four hours after the last dose, blood was collected from the severed neck and the concentration of serum calcium determined as a measure of bone calcium mobilization. The first 10 cm of the intestine was also collected for intestinal calcium transport analysis using the everted gut sac method.
# vitamin D-deficient rats [2] = test: Intestinal calcium transport (everted gut sac method); type: in vivo, rat
# Description: as §1
# [3] = target: T1, full-length recombinant rat vitamin D receptor (Rattus norvegicus, UniProt P13053); test: Vitamin D receptor competitive binding with [3H]-1,25(OH)2D3; conditions: full-length recombinant rat VDR; FIG. 1; read-out: Ki, competition with [3H]-1,25(OH)2D3 for binding to vitamin D receptor
# T1 construct: Full-length recombinant rat receptor was expressed in E. coli BL21 (DE3) Codon Plus RIL cells; histidine tag (C); made in house; host or cells: E. coli BL21 (DE3) Codon Plus RIL
# T1 sequence (P13053 1-423): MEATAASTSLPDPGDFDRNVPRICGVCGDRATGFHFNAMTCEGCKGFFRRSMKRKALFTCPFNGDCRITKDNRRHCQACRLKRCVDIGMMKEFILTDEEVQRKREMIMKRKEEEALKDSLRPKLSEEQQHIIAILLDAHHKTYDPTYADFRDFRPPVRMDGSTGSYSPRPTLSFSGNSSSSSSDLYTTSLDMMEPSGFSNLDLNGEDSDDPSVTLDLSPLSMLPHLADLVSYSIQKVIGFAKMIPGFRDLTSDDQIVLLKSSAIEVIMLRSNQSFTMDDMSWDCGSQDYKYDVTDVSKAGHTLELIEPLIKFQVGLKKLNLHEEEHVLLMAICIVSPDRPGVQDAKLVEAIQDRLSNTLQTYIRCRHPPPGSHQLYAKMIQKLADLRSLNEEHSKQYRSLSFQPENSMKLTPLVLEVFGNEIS
# Description: Full-length recombinant rat receptor was expressed in E. coli BL21 (DE3) Codon Plus RIL cells and purified to homogeneity using two different column chromatography systems. The first system was a nickel affinity resin that utilizes the C-terminal histidine tag on this protein. The protein that was eluted from this resin was further purified using ion exchange chromatography (S-Sepharose Fast Flow). Aliquots of the purified protein were quick frozen in liquid nitrogen and stored at −80° C. until use. For use in binding assays, the protein was diluted in TEDK50 (50 mM Tris, 1.5 mM EDTA, pH7.4, 5 mM DTT, 150 mM KCl) with 0.1% Chaps detergent. The receptor protein and ligand concentration were optimized such that no more than 20% of the added radiolabeled ligand was bound to the receptor.
# Radiolabeled and unlabeled ligands were added to 100 mcl of the diluted protein at a final ethanol concentration of ≦10%, mixed and incubated overnight on ice to reach binding equilibrium. The following day, 100 mcl of hydroxylapatite slurry (50%) was added to each tube and mixed at 10-minute intervals for 30 minutes. The hydroxylapaptite was collected by centrifugation and then washed three times with Tris-EDTA buffer (50 mM Tris, 1.5 mM EDTA, pH 7.4) containing 0.5% Titron X-100. […] Total binding was determined from the tubes containing only radiolabeled ligand.
# [4] = tested on: 24-hydroxylase (24 Ohase) gene promoter in ROS 17/2.8 (bone) cells; test: In vitro transcription assay (24-hydroxylase promoter luciferase reporter); type: cell-based
# Description: Transcription activity was measured in ROS 17/2.8 (bone) cells that were stably transfected with a 24-hydroxylase (24 Ohase) gene promoter upstream of a luciferase reporter gene (Arbour et al., 1998). Cells were given a range of doses. Sixteen hours after dosing the cells were harvested and luciferase activities were measured using a luminometer.
# RLU=relative luciferase units.
# [5] = times greater than the native hormone
Structure (SMILES),EC50 (HL-60 cells) [nM],bone calcium mobilization activity (serum calcium) (vitamin D-deficient rats [1]; FIG. 4A),intestinal calcium transport at 780 pmol/day (vitamin D-deficient rats [2]),Ki [3] [nM],"EC50 (HL-60 cells; Homo sapiens, HL-60) [nM]","HL-60 cell differentiation activity relative to 1α,25-dihydroxyvitamin D3 (HL-60 cells; [5]) [times]","EC50 ([4]; 24-hydroxylase gene, FIG. 3, read-out: EC50, transcriptional activity in bone cells) [nM]","transcriptional activity in bone cells relative to 1α,25-dihydroxyvitamin D3 [4, 5] [times]","bone calcium mobilization at 7020 pmol/day compared with native hormone at 780 pmol/day (vitamin D-deficient rats [1]; 7020 pmol/day for 4 consecutive days, FIG. 4B)","dose giving the same mobilization of bone calcium as 1,25(OH)2D3 at 32 pmol/day (vitamin D-deficient rats [1]; 4 consecutive days, FIG. 4A) [pmol/day]","dose at which any substantial effect on bone calcium mobilization was seen (vitamin D-deficient rats [1]; FIG. 4A, first group of animals) [pmol/day]","dose at which any substantial effect on bone calcium mobilization was seen (vitamin D-deficient rats [1]; FIG. 4B, second group of animals)","intestinal calcium transport activity at 260 pmol/day (vitamin D-deficient rats [2]; 260 pmol/day for 4 consecutive days, FIG. 5A)",dose at which any significant effect on intestinal calcium transport was seen (vitamin D-deficient rats [2]; FIG. 5A) [pmol/day],"intestinal calcium transport activity (vitamin D-deficient rats [2]; FIG. 5A, overall)","intestinal calcium transport activity compared with native hormone (vitamin D-deficient rats [2]; FIG. 5B, second group of animals)"
"C=C1/C(=C\C=C2/CCC[C@]3(C)[C@@H]([C@H](C)CCCC(C)(C)O)CC[C@@H]23)C[C@@H](O)C[C@@H]1O [1,25(OH)2D3, 1α,25-dihydroxyvitamin D3, reference compound]",3,increased serum calcium levels at all dosages,significant increase,,,,,,,,,,,,,
"C=C1[C@H](O)CC(=C/C=C2\CCC[C@]3(C)[C@@H]([C@H](C)/C=C/[C@@H](O)C4(C(=C)CCCCC)CC4)CC[C@@H]23)C[C@H]1O [MM-49, 2-methylene-(22E)-25-(1-methylene-hexyl)-26,27-cyclo-22-dehydro-19-nor-1α,24(R)-dihydroxyvitamin D3]",,"relatively low, or little, activity in mobilizing calcium from bone",promotes intestinal calcium transport,0.3,0.8,~5,0.08,5,did not result in the same mobilization of bone calcium,260,780,"35,100 pmol/day",did not result in any activity,780,"relatively low, or little, intestinal calcium transport activity","significantly less than 1,25(OH)3D3"
